How the values were obtained:
[1] = release of N-0923 from the depots in the monkey, dose versus plasma level; type: in vivo, Cynomolgus monkeys; conditions: oily crystalline suspensions, FIG. 4, after 3 and 85 daily applications
Protocol: Cynomolgus monkeys were given daily subcutaneous bolus injections of oily N-0923 crystalline suspensions of the following composition: The application was performed daily in dosages of 0.25, 1 and 4 mg/kg. 2, 6 and 24 hours after the 3rd and 85th application plasma samples were taken and analyzed using LC-MS-MS.

[2] = aqueous solution (5% dextrose); cited from earlier work
[3] = release of N-0923 from the depot form, plasma level and bioavailability; type: in vivo; conditions: depot formulation according to the invention, read-out: bioavailability of the pharmaceutical composition according to the invention
Protocol: Sprague-Dawley rats were given subcutaneous bolus injections of an oily N-0923 crystalline suspension of the following composition:
6, 24 and 48 hours after the 2nd and 46th administration plasma samples were taken and the N-0923 concentration was analyzed using LC-MS-MS. The readings from 6 animals were averaged.
The test conditions were identical to those in implementation example 5 except that every 48 hours a dose of 12.5 mg N-0923 per kg body weight was applied.
Readings were taken 2, 4, 8, 24, 32 and 48 hours after the 22nd application and were quantified.

[4] = monkeys, aqueous solution; cited from earlier work
[5] = distinct first-pass effect; cited from earlier work

- relation of active-agent plasma levels to the dose introduced in the body [1]: largely linear relation
- bioavailability [3]: > 70%
SMILES: CCCN(CCc1cccs1)[C@H]1CCc2c(O)cccc2C1 [N-0923, S(-)-2-(N-propyl-N-2-thienylethylamino)-5-hydroxytetralin]
- time for which the subcutaneous injection was effective [2]: 60 to 70 min
- half-time value after intravenous injection [4]: 52 min
- bioavailability after oral administration [5]: about 0.5%
